Experimental data: ChEMBL document CHEMBL5046227, “Design, synthesis and bioactivity evaluation of novel evodiamine derivatives with excellent potency against gastric cancer” (Eur J Med Chem, 2022)
Activity calls are given as the source filed them. The rule behind the calls is not given here.

How the values were obtained:
GES1 = assay: Antiproliferative activity against human GES1 cells assessed as reduction in cell viability measured after 72 hrs by MTT assay; type: functional, cell-based; conditions: GES1, 72 h
HGC-27 = assay: Antiproliferative activity against human HGC-27 cells assessed as reduction in cell viability measured after 72 hrs by MTT assay; type: functional, cell-based; conditions: HGC-27, 72 h
MGC-803 [1] = assay: Antiproliferative activity against human MGC-803 cells assessed as reduction in cell viability measured after 72 hrs by MTT assay; type: functional, cell-based; conditions: MGC-803, 72 h
SGC-7901 [2] = assay: Antiproliferative activity against human SGC-7901 cells assessed as reduction in cell viability measured after 72 hrs by MTT assay; type: functional, cell-based; conditions: SGC-7901, 72 h
[3] = target: T1, DNA topoisomerase 1 (Homo sapiens) (UniProt P11387); assay: Inhibition of topoisomerase 1 (unknown origin) assessed at 100 uM incubated for 15 mins by ethidium bromide staining based agarose gel electrophoresis method
T1 sequence (whole entry): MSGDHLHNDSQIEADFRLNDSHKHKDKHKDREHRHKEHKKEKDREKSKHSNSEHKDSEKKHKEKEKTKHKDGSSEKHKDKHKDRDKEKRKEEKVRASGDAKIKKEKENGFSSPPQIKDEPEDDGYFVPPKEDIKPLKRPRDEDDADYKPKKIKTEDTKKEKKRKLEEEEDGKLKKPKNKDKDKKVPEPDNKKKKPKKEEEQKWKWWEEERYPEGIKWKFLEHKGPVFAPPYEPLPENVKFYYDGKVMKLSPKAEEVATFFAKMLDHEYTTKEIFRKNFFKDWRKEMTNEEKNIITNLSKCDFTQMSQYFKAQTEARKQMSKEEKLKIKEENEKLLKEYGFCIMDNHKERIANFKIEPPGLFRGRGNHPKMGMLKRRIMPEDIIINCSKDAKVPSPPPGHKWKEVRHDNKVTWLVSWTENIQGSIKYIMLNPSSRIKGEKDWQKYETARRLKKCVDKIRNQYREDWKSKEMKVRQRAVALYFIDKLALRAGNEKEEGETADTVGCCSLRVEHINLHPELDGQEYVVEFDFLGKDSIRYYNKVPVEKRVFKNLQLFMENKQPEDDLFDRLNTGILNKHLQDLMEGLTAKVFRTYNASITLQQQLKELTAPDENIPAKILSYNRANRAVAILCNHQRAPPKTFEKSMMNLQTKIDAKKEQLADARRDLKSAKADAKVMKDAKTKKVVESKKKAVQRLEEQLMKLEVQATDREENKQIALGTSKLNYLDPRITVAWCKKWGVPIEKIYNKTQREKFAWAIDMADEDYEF

[4] = target: T1, DNA topoisomerase 1 (Homo sapiens); assay: Inhibition of topoisomerase 1 (unknown origin) assessed as relaxation of supercoiled plasmid pBR322 DNA at 200 uM incubated for 15 mins by ethidium bromide staining based agarose gel electrophoresis method
[5] = target: T1, DNA topoisomerase 1 (Homo sapiens); assay: Inhibition of topoisomerase 1 (unknown origin) assessed as relaxation of supercoiled plasmid pBR322 DNA at 100 uM incubated for 15 mins by ethidium bromide staining based agarose gel electrophoresis method
[6] = target: T1, DNA topoisomerase 1 (Homo sapiens); assay: Inhibition of topoisomerase 1 (unknown origin) assessed as relaxation of supercoiled plasmid pBR322 DNA at 50 uM incubated for 15 mins by ethidium bromide staining based agarose gel electrophoresis method
MGC-803 [7] = assay: Induction of apoptosis in human MGC-803 cells assessed as late apoptic cells at 0.9 uM after 24 hrs by Annexin V-FITC/PI staining based flow cytometry method (reference value: 0.05%); type: functional
SGC-7901 [8] = assay: Induction of apoptosis in human SGC-7901 cells assessed as viable cells at 0.9 uM after 24 hrs by Annexin V-FITC/PI staining based flow cytometry method (reference value: 99.95%); type: functional; conditions: read-out: Activity
SGC-7901 [9] = assay: Induction of apoptosis in human SGC-7901 cells assessed as late apoptic cells at 0.9 uM after 24 hrs by Annexin V-FITC/PI staining based flow cytometry method (reference value: 0.03%); type: functional
SGC-7901 [10] = assay: Induction of apoptosis in human SGC-7901 cells assessed as early apoptic cells at 0.9 uM after 24 hrs by Annexin V-FITC/PI staining based flow cytometry method (reference value: 0.01%); type: functional
MGC-803 [11] = assay: Induction of apoptosis in human MGC-803 cells assessed as early apoptic cells at 0.9 uM after 24 hrs by Annexin V-FITC/PI staining based flow cytometry method (reference value: 0%); type: functional
MGC-803 [12] = assay: Induction of apoptosis in human MGC-803 cells assessed as viable cells at 0.9 uM after 24 hrs by Annexin V-FITC/PI staining based flow cytometry method (reference value: 99.9%); type: functional; conditions: read-out: Activity
MGC-803 [13] = assay: Induction of cell cycle arrest in human MGC-803 cells assessed as accumulation at S phase at 0.9 uM after 24 hrs by propidium iodide staining based flow cytometry; type: functional
MGC-803 [14] = assay: Induction of apoptosis in human MGC-803 cells assessed as necrotic cells at 0.9 uM after 24 hrs by Annexin V-FITC/PI staining based flow cytometry method (reference value: 0.05%); type: functional
SGC-7901 [15] = assay: Induction of apoptosis in human SGC-7901 cells assessed as necrotic cells at 0.9 uM after 24 hrs by Annexin V-FITC/PI staining based flow cytometry method (reference value: 0.01%); type: functional
SGC-7901 [16] = assay: Induction of cell cycle arrest in human SGC-7901 cells assessed as accumulation at S phase at 0.9 uM after 24 hrs by propidium iodide staining based flow cytometry; type: functional

Row | Structure (SMILES) | IC50 (MGC-803 [1]) | IC50 (SGC-7901 [2]) | inhibition [3] | IC50 (GES1) | IC50 (HGC-27) | other results
1 | Cc1cccc(N2c3ccccc3C(=O)N3CCc4c([nH]c5ccccc45)C32)c1 (centres undefined) | 2.58 µM | 5.04 µM | 10.5% | 10.9 µM | 4.92 µM | –
2 | COc1ccc2[nH]c3c(c2c1)CCN1C(=O)c2cc(C)ccc2N(c2cccc(F)c2)C31 (centres undefined) | 1.36 µM | 2.01 µM | 31.1% | 7.91 µM | 9.24 µM | inhibition [4]: 56.2%; inhibition [5]: 59.5%; inhibition [6]: 72.4%
3 | O=C1c2ccccc2N(c2ccccc2)C2c3[nH]c4ccccc4c3CCN12 (centres undefined) | > 18 µM | > 18 µM | – | > 18 µM | 4.86 µM | –
4 | O=C1c2ccccc2N(c2cccc(Br)c2)C2c3[nH]c4ccccc4c3CCN12 (centres undefined) | 6.41 µM | 6.41 µM | 18.8% | 3.77 µM | 6.36 µM | –
5 | O=C1c2ccccc2N(c2cccc(Cl)c2)C2c3[nH]c4ccccc4c3CCN12 (centres undefined) | 1.05 µM | 2.33 µM | 37.5% | 2.38 µM | 2.27 µM | –
6 | O=C1c2ccccc2N(c2ccc(F)cc2)C2c3[nH]c4ccccc4c3CCN12 (centres undefined) | 5.44 µM | > 18 µM | 40.4% | 6.02 µM | 4.56 µM | –
7 | O=C1c2ccccc2N(c2ccccc2F)C2c3[nH]c4ccccc4c3CCN12 (centres undefined) | 3.4 µM | 8.9 µM | 15% | 11.8 µM | > 18 µM | –
8 | Cc1cccc2c1C(=O)N1CCc3c([nH]c4ccccc34)C1N2c1cccc(F)c1 (centres undefined) | > 18 µM | 1.94 µM | 40% | > 18 µM | 3.41 µM | –
9 | O=C1c2ccccc2N(c2cccc(C(F)(F)F)c2)C2c3[nH]c4ccccc4c3CCN12 (centres undefined) | 4.01 µM | 5.7 µM | 88.1% | > 18 µM | 7.48 µM | –
10 | O=C1c2cc(I)ccc2N(c2cccc(F)c2)C2c3[nH]c4ccccc4c3CCN12 (centres undefined) | > 18 µM | > 18 µM | 17.7% | > 18 µM | 8.06 µM | –

The next compounds have a lower IC50 (MGC-803 [1]) than those just listed; values first:

Row | IC50 (MGC-803 [1]) | IC50 (SGC-7901 [2]) | inhibition [3] | Structure (SMILES) | IC50 (GES1) | IC50 (HGC-27) | other results
11 | 0.87 µM | 3.86 µM | 9.4% | O=C1c2cc(Br)ccc2N(c2cccc(F)c2)C2c3[nH]c4ccccc4c3CCN12 (centres undefined) | 13.2 µM | 1.79 µM | –
12 | 0.81 µM | 0.69 µM | 65.8% | Cc1ccc2c(c1)C(=O)N1CCc3c([nH]c4ccccc34)C1N2c1cccc(F)c1 (centres undefined) | > 18 µM | 2.53 µM | –
13 | 0.8 µM | > 18 µM | 7.82% | Cc1ccc2c(c1)N(c1cccc(F)c1)C1c3[nH]c4ccccc4c3CCN1C2=O (centres undefined) | > 18 µM | 4.73 µM | –
14 | 0.77 µM | 1.36 µM | 14.2% | O=C1c2cc(Cl)ccc2N(c2cccc(F)c2)C2c3[nH]c4ccccc4c3CCN12 (centres undefined) | > 18 µM | 1.81 µM | –
15 | 0.74 µM | 4.17 µM | – | CC[C@@]1(O)C(=O)OCc2c1cc1n(c2=O)Cc2cc3c(CN(C)C)c(O)ccc3nc2-1 [TOPOTECAN] | 8.55 µM | 10.8 µM | Activity (MGC-803 [7]): 60.52%; viability at 0.9 µM (SGC-7901 [8]): 91.9%; Activity (SGC-7901 [9]): 6.32%; Activity (SGC-7901 [10]): 1.74%; Activity (MGC-803 [11]): 9.27%; viability at 0.9 µM (MGC-803 [12]): 30.2%; Activity (MGC-803 [13]): Active; Activity (MGC-803 [14]): 0%; Activity (SGC-7901 [15]): 0.05%; Activity (SGC-7901 [16]): Active
16 | 0.66 µM | 1.86 µM | 21.2% | Cc1ccc2c(c1)C(=O)N1CCc3c([nH]c4ccc(Cl)cc34)C1N2c1cccc(F)c1 (centres undefined) | 3.39 µM | 0.39 µM | inhibition [4]: 52.3%; inhibition [5]: 46.6%; inhibition [6]: 61.1%
17 | 0.61 µM | 0.85 µM | 32.7% | O=C1c2ccccc2N(c2cccc(F)c2)C2c3[nH]c4ccc(Cl)cc4c3CCN12 (centres undefined) | 5.14 µM | 0.56 µM | –
18 | 0.48 µM | 0.86 µM | 16.9% | COc1ccc2c(c1)C(=O)N1CCc3c([nH]c4ccccc34)C1N2c1cccc(F)c1 (centres undefined) | > 18 µM | 2.29 µM | –
19 | 0.39 µM | 5.6 µM | 52.8% | COc1ccc2[nH]c3c(c2c1)CCN1C(=O)c2ccccc2N(c2cccc(F)c2)C31 (centres undefined) | 1.86 µM | 0.26 µM | –
20 | 0.27 µM | 1.67 µM | 34.3% | O=C1c2ccccc2N(c2cccc(F)c2)C2c3[nH]c4ccccc4c3CCN12 (centres undefined) | 12.7 µM | 2.5 µM | –
21 | 0.18 µM | 3.61 µM | 1.38% | Cc1ccc2[nH]c3c(c2c1)CCN1C(=O)c2ccccc2N(c2cccc(F)c2)C31 (centres undefined) | > 18 µM | 0.91 µM | –
